Structures are written as SMILES. Several values for one entry are separate records, joined by “and”; a condition that tells them apart may be missing. Identical values can stand only once.

Test [1] has as its target T1, Adrenergic receptor alpha-1 (Rattus norvegicus, UniProt P15823+P23944+P43140).
T1 sequence (P15823 whole entry): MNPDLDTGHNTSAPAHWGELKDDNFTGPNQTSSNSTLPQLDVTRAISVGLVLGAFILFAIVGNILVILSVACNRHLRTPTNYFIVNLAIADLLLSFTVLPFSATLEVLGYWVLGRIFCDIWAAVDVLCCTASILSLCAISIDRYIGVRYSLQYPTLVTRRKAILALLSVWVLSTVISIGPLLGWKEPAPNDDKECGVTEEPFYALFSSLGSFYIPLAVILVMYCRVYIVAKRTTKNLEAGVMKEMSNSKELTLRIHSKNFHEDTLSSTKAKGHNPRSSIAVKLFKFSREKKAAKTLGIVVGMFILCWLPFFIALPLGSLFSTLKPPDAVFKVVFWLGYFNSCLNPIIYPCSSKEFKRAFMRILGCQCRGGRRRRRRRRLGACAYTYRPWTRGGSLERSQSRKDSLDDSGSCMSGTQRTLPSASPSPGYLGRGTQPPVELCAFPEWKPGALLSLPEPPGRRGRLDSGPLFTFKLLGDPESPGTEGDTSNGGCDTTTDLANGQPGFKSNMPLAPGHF
T1 sequence (P23944 whole entry): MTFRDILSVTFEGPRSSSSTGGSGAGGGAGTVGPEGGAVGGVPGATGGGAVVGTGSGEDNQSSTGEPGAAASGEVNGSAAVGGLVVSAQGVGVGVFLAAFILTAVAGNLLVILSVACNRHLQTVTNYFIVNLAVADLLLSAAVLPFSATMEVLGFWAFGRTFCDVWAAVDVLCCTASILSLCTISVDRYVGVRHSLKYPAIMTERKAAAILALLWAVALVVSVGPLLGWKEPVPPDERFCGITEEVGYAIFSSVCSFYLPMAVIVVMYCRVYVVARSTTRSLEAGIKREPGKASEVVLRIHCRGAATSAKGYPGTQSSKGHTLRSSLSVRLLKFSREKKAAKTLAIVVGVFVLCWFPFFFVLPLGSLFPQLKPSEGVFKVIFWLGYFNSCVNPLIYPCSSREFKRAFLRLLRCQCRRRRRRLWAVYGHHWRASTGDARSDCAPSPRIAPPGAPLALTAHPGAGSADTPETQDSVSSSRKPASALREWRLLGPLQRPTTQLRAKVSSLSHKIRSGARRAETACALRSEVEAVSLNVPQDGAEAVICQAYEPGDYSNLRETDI
T1 sequence (P43140 whole entry): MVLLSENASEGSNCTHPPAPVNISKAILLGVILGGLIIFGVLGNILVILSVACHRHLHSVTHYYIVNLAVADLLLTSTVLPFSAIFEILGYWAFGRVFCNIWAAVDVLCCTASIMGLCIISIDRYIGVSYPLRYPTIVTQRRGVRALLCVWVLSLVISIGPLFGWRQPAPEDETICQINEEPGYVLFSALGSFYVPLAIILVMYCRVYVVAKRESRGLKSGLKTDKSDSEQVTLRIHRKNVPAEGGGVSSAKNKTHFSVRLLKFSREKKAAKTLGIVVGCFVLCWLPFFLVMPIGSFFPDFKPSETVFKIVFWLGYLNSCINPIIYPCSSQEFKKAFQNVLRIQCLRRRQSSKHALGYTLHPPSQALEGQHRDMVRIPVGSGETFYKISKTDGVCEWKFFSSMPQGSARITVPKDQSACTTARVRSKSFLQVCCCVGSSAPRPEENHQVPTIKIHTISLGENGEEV
Briefly: In vitro radioligand binding assay on adrenaline Alpha-1 adrenergic receptor of rat cortex using [3H]- prazosin. It counts as tissue-based.

For test [2], the target named is T2, 5-hydroxytryptamine receptor 1A (Rattus norvegicus, UniProt P19327).
T2 sequence (P19327 whole entry): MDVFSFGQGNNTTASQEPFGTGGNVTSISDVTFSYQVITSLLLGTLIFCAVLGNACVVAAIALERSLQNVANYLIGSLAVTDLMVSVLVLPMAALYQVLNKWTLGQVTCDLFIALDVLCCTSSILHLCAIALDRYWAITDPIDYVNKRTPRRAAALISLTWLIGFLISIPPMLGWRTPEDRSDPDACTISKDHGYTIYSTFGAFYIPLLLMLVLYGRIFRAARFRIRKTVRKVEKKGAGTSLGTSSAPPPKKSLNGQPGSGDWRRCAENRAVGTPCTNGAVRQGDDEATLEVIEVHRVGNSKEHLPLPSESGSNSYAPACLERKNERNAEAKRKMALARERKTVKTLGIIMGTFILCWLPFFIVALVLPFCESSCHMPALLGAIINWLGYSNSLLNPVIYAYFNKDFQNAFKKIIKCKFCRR
Briefly: Displacement of [3H]8-OH-DPAT from rat hippocampal 5-hydroxytryptamine 1A receptor. The format is tissue-based, Hippocampus.

Test [3] concerns the target D(2) dopamine receptor (Rattus norvegicus, UniProt P61169). Put plainly: In vitro radioligand binding assay on Dopamine receptor D2 of rat striatum using [3H]- spiperone. It counts as tissue-based.
Test [4] has as its target T2, 5-hydroxytryptamine receptor 1A. Briefly: In vitro radioligand binding assay on 5-hydroxytryptamine 1A receptor using [3H]8-OH-DPAT in rat hippocampus. It counts as tissue-based.

Sequence of D(2) dopamine receptor (P61169 whole entry): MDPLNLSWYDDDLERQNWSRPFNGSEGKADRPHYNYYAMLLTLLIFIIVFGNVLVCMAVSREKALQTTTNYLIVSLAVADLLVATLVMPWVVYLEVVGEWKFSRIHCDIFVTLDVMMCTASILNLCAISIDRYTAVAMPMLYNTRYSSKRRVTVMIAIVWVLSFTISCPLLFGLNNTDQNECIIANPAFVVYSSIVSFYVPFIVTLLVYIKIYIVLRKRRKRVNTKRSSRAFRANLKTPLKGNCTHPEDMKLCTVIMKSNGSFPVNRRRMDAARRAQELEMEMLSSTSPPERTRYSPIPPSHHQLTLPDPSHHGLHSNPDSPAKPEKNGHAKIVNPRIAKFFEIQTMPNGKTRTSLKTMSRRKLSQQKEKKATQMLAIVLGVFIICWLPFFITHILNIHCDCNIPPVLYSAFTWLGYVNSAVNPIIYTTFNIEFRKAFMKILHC

As usually defined, the Ki is the equilibrium dissociation constant of an inhibitor or competing ligand from its target. Higher therefore signals lower affinity. For `O=C1C2C(C(=O)N1CCCCN1CCN(c3ncccn3)CC1)[C@H]1CC[C@@H]2C1` (some centres undefined), the Ki in test [1] is 1260 nM; in test [2], 21.5 nM and 25 nM.
Turning to `COc1ccc(CCCCNCCOc2cc(O)cc3c2OCCC3)cc1`, the Ki in test [1] was 98.4 nM; in test [2], 0.271 nM; in test [3] it was 1.76 nM.
On the same counts, the results for `COc1ccc(CCCCNCCOc2cc(C)cc3c2OCCC3)cc1` are 35.1 nM, 0.779 nM and 1.79 nM.
On to `COc1ccc(CCCCNCCOc2c(F)ccc3c2OCCC3)cc1`, for which the Ki in test [1] is 71.5 nM; in test [2], 0.35 nM; in test [3], 21.3 nM.
For the compound `COc1ccc(CCCCNCCOc2cc(OC)cc3c2OCCC3)cc1`, the Ki in test [1] was 27.9 nM; in test [2], 3.07 nM; in test [3], 1.75 nM.
Turning to `CCCN(CCC)[C@H]1CCc2c(F)ccc(O)c2C1`, the Ki in test [1] is 6080 nM; in test [2] it was 46 nM; in test [3], 614 nM and 400 nM.
As to `COc1ccc(CCCCNCCOc2cccc3c2OCCC3)cc1`, the results for the Ki in test [1], in test [2] and in test [3] were 5.19 nM, 0.118 nM and 0.581 nM, respectively.
In the same order, the values of `COc1ccc(CCCCNCCOc2cc(Cl)cc3c2OCCC3)cc1` are 14.3 nM, 1.29 nM and 0.489 nM.
In the same order, the values of `COc1ccc(CCCCNCCOc2ccc(F)c3c2OCCC3)cc1` are 8.77 nM, 0.051 nM and 3.53 nM.
Take `COc1ccc(CCCCNCCOc2cc(F)cc3c2OCCC3)cc1`: the figures for the Ki in test [1], in test [2] and in test [3] were 2.71 nM, 0.221 nM and 0.259 nM, respectively.
By IC50 is commonly meant the concentration that gives 50% inhibition. Low readings indicate inhibition by little substance, high ones a need for much substance. As to `COc1ccccc1N1CCN(C[C@@H](C(=O)NC(C)(C)C)c2ccccc2)CC1`, the values for the concentration for half-maximal inhibition (IC50) in test [1] and in test [4] were 1490 nM and 33.9 nM, respectively. For the same compound, the results for the Ki in test [1], in test [2] and in test [3] were 897 nM, 27.9 nM and 176 nM, respectively.

(Values after ChEMBL document CHEMBL1129995, “N-[2-[(substituted chroman-8-yl)oxy]ethyl]-4-(4-methoxyphenyl)butylamines: synthesis and wide range of antagonism at the human 5-HT1A receptor” (J Med Chem, 1997).)
